Experimental data from PubChem BioAssay (NCI).
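Step 1: Grow cells in 96-well plates. Step 2: Expose to compound for 48 hours at 5 concentrations. Step 3: Interpolate endpoints linearly; if unreached, use highest concentration. At the GI50, growth is halved. TGI: concentration producing complete growth inhibition.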

How the values were obtained:
Experiment in all cases: NCI anticancer screen, dose series, 48 h
[1] = tested on: LOX IMVI melanoma
[2] = tested on: SK-MEL-2 melanoma
[3] = tested on: RPMI-8226 leukemia
[4] = tested on: NCI-H460 lung
[5] = tested on: HT29 colon
[6] = tested on: SK-OV-3 ovarian
[7] = tested on: T-47D breast
[8] = tested on: HS 578T breast

## CC#CC(=O)N1CCC[C@H]1c1nc(-c2ccc(C(=O)Nc3ccccn3)cc2)c2c(N)nccn12
[1]
  GI50: 98500 nM
  TGI: > 100 µM
[2]
  GI50: > 88400 nM
  TGI: > 100 µM
[3]
  GI50: 59 µM
  TGI: > 100 µM
[4]
  GI50: 89.5 µM
  TGI: > 100 µM
[5]
  GI50: 55.1 µM
  TGI: > 100 µM
[6]
  GI50: 2.25 µM
  TGI: > 100 µM
[7]
  GI50: 10.1 µM
  TGI: > 100 µM
[8]
  GI50: > 72.5 µM
  TGI: > 100 µM

## NC(CSC(c1ccccc1)(c1ccccc1)c1ccc2ccccc2c1)C(=O)O (stereo unspecified)
[1]
  GI50: 172 nM
  TGI: 18.1 µM
[2]
  GI50: 1290 nM
  TGI: 30 µM
[3]
  GI50: 0.0327 µM
[4]
  GI50: 0.0485 µM
  TGI: 12.1 µM
[5]
  GI50: 0.2 µM
  TGI: > 100 µM
[6]
  GI50: 0.0806 µM
  TGI: 29.6 µM
[7]
  GI50: 0.132 µM
  TGI: 18 µM
[8]
  GI50: 0.0267 µM
  TGI: 0.0832 µM

## FC(F)(F)c1ccc(-c2cnc(Br)nc2NC2CCCCCC2)cc1
[3]
  GI50: 7.98 µM
  TGI: > 100 µM
[4]
  GI50: 82.2 µM
  TGI: > 100 µM
[5]
  GI50: 71.4 µM
  TGI: > 100 µM
[6]
  GI50: > 100 µM
  TGI: > 100 µM
[7]
  GI50: 19.6 µM
  TGI: > 100 µM
[8]
  GI50: > 100 µM
  TGI: > 100 µM

## C=C(C)[C@H]1CC/C(C)=C/CCC(C)C(=O)CC/C(CO)=C\[C@@H]1O (stereo partly specified)
[1]
  GI50: 57300 nM
  TGI: > 100 µM
[2]
  GI50: > 100000 nM
  TGI: > 100 µM
[3]
  GI50: > 100 µM
  TGI: > 100 µM
[4]
  GI50: 58.8 µM
  TGI: > 100 µM
[6]
  GI50: > 100 µM
  TGI: > 100 µM
[7]
  GI50: > 100 µM
  TGI: > 100 µM
[8]
  GI50: 41.9 µM
  TGI: > 100 µM

## COc1ccc(-c2ccc(-c3ccc(C(=N)N)cn3)s2)cc1Cl
[1]
  GI50: 1630 nM
  TGI: 3.08 µM
[2]
  GI50: 2010 nM
  TGI: 4.14 µM
[4]
  GI50: 1.61 µM
  TGI: 3.02 µM
[5]
  GI50: 1.18 µM
  TGI: 2.87 µM
[6]
  GI50: 1.65 µM
  TGI: 3.41 µM
[8]
  GI50: 1.79 µM
  TGI: 3.8 µM

## COc1ccc(NC(=O)c2cc(OC)c(OC)c(OC)c2)cc1O
[1]
  GI50: 8330 nM
  TGI: > 100 µM
[2]
  GI50: 2580 nM
  TGI: > 100 µM
[3]
  GI50: 5.93 µM
  TGI: > 100 µM
[4]
  GI50: 3 µM
  TGI: > 100 µM
[5]
  GI50: 3.21 µM
  TGI: 11.6 µM
[6]
  GI50: 4.95 µM
  TGI: > 100 µM
[7]
  GI50: 9.89 µM
  TGI: > 100 µM

## C=C(C)C1/C=C(/C(C)C)CC[C@]2(C)O[C@@H]2CC[C@H](C)CC1=O (stereo partly specified)
[1]
  GI50: 23300 nM
  TGI: 57.6 µM
[2]
  GI50: > 100000 nM
  TGI: > 100 µM
[3]
  GI50: 15.5 µM
  TGI: 34.4 µM
[4]
  GI50: 50.3 µM
  TGI: > 100 µM
[6]
  GI50: > 100 µM
  TGI: > 100 µM
[7]
  GI50: 76.7 µM
  TGI: > 100 µM
[8]
  GI50: 31.7 µM
  TGI: > 100 µM

## O=Nc1c(O)ccc2ccccc12
[1]
  GI50: 2360 nM
  TGI: 7.51 µM
[2]
  GI50: 2120 nM
  TGI: 4.36 µM
[3]
  GI50: 2.64 µM
  TGI: 7.21 µM
[4]
  GI50: 14.2 µM
  TGI: 35.7 µM
[5]
  GI50: 3.41 µM
  TGI: 10.7 µM
[6]
  GI50: 15.3 µM
  TGI: 28.9 µM
[8]
  GI50: 2.45 µM
  TGI: 8.24 µM

## c1ccc(-c2nc(N3CCNCC3)c3nc(-c4ccccc4)oc3n2)cc1
[1]
  GI50: 1660 nM
  TGI: 3.17 µM
[2]
  GI50: 1910 nM
  TGI: 3.74 µM
[3]
  GI50: 2.08 µM
  TGI: 4.64 µM
[4]
  GI50: 1.73 µM
  TGI: 3.38 µM
[5]
  GI50: 1.84 µM
  TGI: 3.85 µM
[6]
  GI50: 2 µM
  TGI: 3.71 µM
[8]
  GI50: 1.87 µM
  TGI: 4.11 µM

## Cn1c(=O)c2[nH]c(COc3ccc(C(C)(C)C)cc3)nc2n(C)c1=O
[1]
  GI50: 19900 nM
  TGI: > 100 µM
[3]
  GI50: 1.08 µM
  TGI: 18.4 µM
[4]
  GI50: 15.4 µM
  TGI: > 100 µM
[5]
  GI50: 29.3 µM
  TGI: > 100 µM
[6]
  GI50: 51.6 µM
  TGI: > 100 µM
[7]
  GI50: 11.9 µM
  TGI: > 100 µM
[8]
  GI50: 20.2 µM
  TGI: > 100 µM

## Cn1ccnc1C(=O)/C=C/c1ccc(C(=O)Nc2nc3ccccc3[nH]2)cc1
[1]
  GI50: 2380 nM
  TGI: > 25 µM
[2]
  GI50: > 25000 nM
  TGI: > 25 µM
[3]
  GI50: 0.81 µM
  TGI: > 25 µM
[4]
  GI50: 1.6 µM
  TGI: > 25 µM
[5]
  GI50: 1.01 µM
  TGI: > 25 µM
[7]
  GI50: 3.37 µM
  TGI: > 25 µM
[8]
  GI50: 5.99 µM
  TGI: > 25 µM

## CC(C)(C)CC(C)(C)c1ccc(OCCOCCSC(=N)N)cc1
[1]
  GI50: 1720 nM
  TGI: 3.09 µM
[2]
  GI50: 2020 nM
  TGI: 3.49 µM
[4]
  GI50: 1.75 µM
  TGI: 3.29 µM
[5]
  GI50: 1.78 µM
  TGI: 3.42 µM
[6]
  GI50: 2.74 µM
  TGI: 7.39 µM
[7]
  GI50: 1.68 µM
  TGI: 3.54 µM
[8]
  GI50: 2.28 µM
  TGI: 6.14 µM

## O=Cc1coc2ccccc2c1=O
[1]
  TGI: 37.1 µM
[3]
  TGI: 52.1 µM
[4]
  TGI: 50.9 µM
[5]
  TGI: 46.1 µM
[6]
  TGI: 50.9 µM
[7]
  TGI: > 100 µM
[8]
  TGI: 53.4 µM

## COc1ccc([C@H]2O[C@@H](CO)C[C@]2(O)c2ccc(OC)cc2)cc1
[1]
  GI50: > 100000 nM
  TGI: > 100 µM
[3]
  GI50: > 100 µM
  TGI: > 100 µM
[4]
  GI50: > 100 µM
  TGI: > 100 µM
[5]
  GI50: > 100 µM
  TGI: > 100 µM
[6]
  GI50: > 100 µM
  TGI: > 100 µM
[8]
  GI50: 39.5 µM
  TGI: > 100 µM
